From article PMC7669867, “Synthesis and initial screening of lactate dehydrogenase inhibitor activity of 1,3-benzodioxole derivatives” (Scientific Reports, 2020) come the findings set out here.

Read-outs that look alike come from different tables or passages of the source. Where only a bound is given, the exact number is not on record here.

The target in data set [1] is T1, purified recombinant human LDHB protein (Homo sapiens, UniProt P07195).
T1 construct: purchased Abcam
Nature of the data set: In vitro LDHB activity assay (NAD+ converted to NADH). As to conditions: synthesized compounds; read-out: LDHB IC50. The format is biochemical. On the procedure:
(§1) The in vitro evaluation of the LDHA inhibitor activities of the synthesized compounds was determined by the NADH intensity decrease through oxidation in a solution of HEPES-K^+, NADH, and pyruvate at a pH = 7.2. The NADH oxidation fluorescence intensity was measured using a spectrofluorometer at 340 nm excitation and 460 nm emission wavelengths, representing the NADH-specific fluorescence spectrum. Furthermore, the in vitro evaluation of the LDHB inhibitor activity was determined as a reverse reaction, which converts lactate to pyruvate by determining the amount of NAD^+ converted to NADH using the above-mentioned spectrophotometric experimental setting (Table 2). Based on this analysis, the half-maximal inhibitory concentration (IC50) of the synthesized compounds was obtained.
In vitro analysis was determined the amount of NAD^+ converted to NADH[33]. The assay mixture composed of 100 mM Tris–HCl buffer (pH 8.0), 200 mM sodium L-lactate, 2.5 mM NAD^+, and 100 ng of purified recombinant human LDHB protein (Abcam). The fluorescence intensity of NADH was measured using a spectrofluorometer (Spectramax M2) at 340 nm as excitation wavelength and 460 nm as emission wavelength which is the specific fluorescence of NADH.

The subject of data set [2] is human glioma U87 cells. Nature of the data set: Cell viability MTT assay, U87. It is filed as cell-based. The note with it: U-87 MG, MTT, 48 h, read-out: U87 (GI50). The procedure:
(§2) The human pancreatic cancer cell lines, PANC-1 and MiaPaCa-2, human lung cancer A549 cells, human breast cancer MCF-7, and human glioma U87 cells were obtained from the Korean cell line bank (Seoul, Korea). The cells were cultured in Dulbecco’s Modified Eagle Medium (DMEM; ThermoFisher Scientific, Waltham, MA) supplemented with 10% fetal bovine serum (FBS; Sigma-Aldrich) and 1% penicillin/streptomycin (ThermoFisher Scientific). The cells were cultured at 37 °C in an atmosphere containing 5% CO2.
(§3) The potential cytotoxicity of compounds at different concentrations was evaluated using the MTT assay. Briefly, cancer cell lines were pre-incubated in 96-well plates with compounds for 48 h. Subsequently, MTT working solution (2 mg/mL in phosphate buffer solution) was added to each well and the plate was incubated for 4 h at 37 °C in an atmosphere containing 5% CO2. Then, the conditioned media were aspirated, and the formed formazan crystals in living cells were quantified using the microplate reader (Spectramax M2) at 540 nm. The concentrations that produce 50% cell growth inhibition (GI50) were calculated by curves constructed by the plot of cell survival by an assistant of PRISM software (GraphPad, San Diego, CA).

Data set [3] relates to human breast cancer MCF-7. Nature of the data set: Cell viability MTT assay, MCF-7. It is filed as cell-based. The note with it: MCF7, MTT, 48 h, read-out: MCF-7 (GI50). On the procedure: as §2, §3
Data set [4] concerns several cancer cells. In words: Cell viability MTT assay, several cancer cells. The format is cell-based. As to conditions: Homo sapiens, cell line not given, read-out: concentration of half-maximal growth inhibition (GI50). The procedure: To assess the anticancer potency of these compounds in several cancer cells, we determined the cell toxicities of these compounds using an MTT assay. […] On the other hand, compound 10 has higher cytotoxicity compared to other compounds in various cancer cell lines. […] There is a small difference between standard compounds and compound 10 in growth inhibition of PANC-1 cells.
as §3
In general terms: Formazan colour is commonly taken as a measure of viable cells.

In data set [5] the test system is human lung cancer A549 cells. Nature of the data set: Cell viability MTT assay, A549. It is filed as cell-based. As to conditions: A549, MTT, 48 h, read-out: A549 (GI50). The procedure: as §2, §3
Data set [6] has as its system human pancreatic cancer PANC-1 cells. Nature of the data set: Cell viability MTT assay, PANC-1. The format is cell-based. As to conditions: Homo sapiens, PANC-1; MTT, 48 h; read-out: PANC-1 (GI50). On the procedure: as §2, §3
The subject of data set [7] is human pancreatic cancer MiaPaCa-2 cells. Nature of the data set: Cell viability MTT assay, MiaPaCa-2. The note with it: MIA PaCa-2, MTT, 48 h, read-out: MiaPaCa-2 (GI50). It is filed as cell-based. On the procedure:
as §2, §3

Data set [8] has as its target T2, purified recombinant human LDHA protein (Homo sapiens, UniProt P00338).
T2 construct: purchased Abcam
Nature of the data set: In vitro LDHA inhibitor activity (NADH fluorescence decrease). It is filed as biochemical. As to conditions: for LDHB/LDHA: ratio of LDHB IC50 to LDHA IC50 (selectivity); for IC50: synthesized compounds, read-out: LDHA IC50. On the procedure:
as §1
In vitro evaluation on LDHA inhibitor activity. LDHA activity assay was performed in accordance with previous studies[16],[18]. Briefly, the various concentrations of compounds were incubated with reaction buffer containing 20 mM HEPES-K^+, 20 μM NADH, 2 mM pyruvate, and 100 ng of purified recombinant human LDHA protein (Abcam, Cambridge, UK). The fluorescence of NADH, which has an excitation wavelength of 340 nm and an emission wavelength of 460 nm, was detected using a microplate spectrofluorometer (Spectramax M2; Molecular Devices, Sunnyvale, CA).

Data set [9] in a line: Human liver microsomal stability. As to conditions: microsomes, pH 7.4. It is filed as in vitro ADME. The procedure:
(§4) To finish the reaction, an acetonitrile solution (involved in chlorpropamide) is added. The reaction tubes are centrifuged and the supernatant is withdrawn for analysis by LC–MS/MS.

Data set [10] can be described thus: in vitro. The format is in vitro ADME, human. The procedure:
(§5) Human and rat plasma (Sigma-Aldrich) are incubated at 37 °C with test compounds. During the incubation, aliquots are withdrawn at 0, 30, 120 min time points and acetonitrile solution (containing chlorpropamide) is added. After vortexing, the aliquots are centrifuged and the supernatant is withdrawn for analysis by LC–MS/MS.

In data set [11] the target is T3, CYP2D6 (Homo sapiens, UniProt P10635).
T3 construct: Pooled Human liver microsomes (Sigma-Aldrich; 0.25 mg/mL); tissue Sigma-Aldrich; host or cells: pooled human liver microsomes
T3 sequence (P10635 whole entry): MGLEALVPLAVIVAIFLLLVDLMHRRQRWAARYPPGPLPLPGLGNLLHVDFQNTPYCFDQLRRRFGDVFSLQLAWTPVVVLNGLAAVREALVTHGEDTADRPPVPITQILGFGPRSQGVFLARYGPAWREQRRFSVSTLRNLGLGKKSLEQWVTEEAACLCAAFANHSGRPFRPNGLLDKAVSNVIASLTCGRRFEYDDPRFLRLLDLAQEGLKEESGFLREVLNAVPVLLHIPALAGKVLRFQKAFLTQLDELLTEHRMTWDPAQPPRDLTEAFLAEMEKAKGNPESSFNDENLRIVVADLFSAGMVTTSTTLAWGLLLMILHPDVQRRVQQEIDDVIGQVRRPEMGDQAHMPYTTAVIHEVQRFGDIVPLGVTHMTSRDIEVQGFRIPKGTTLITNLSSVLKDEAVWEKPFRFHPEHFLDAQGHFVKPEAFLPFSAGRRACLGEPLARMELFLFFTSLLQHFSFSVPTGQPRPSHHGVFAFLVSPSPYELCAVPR
In words: CYP isozymes activity assay, CYP2D6. It is filed as in vitro ADME. The note with it: microsomes, 0.1 µM. On the procedure: (§6) Pooled Human liver microsomes (Sigma-Aldrich; 0.25 mg/mL), 0.1 M phosphate buffer solution (pH 7.4), the five most commonly used substrate cocktails, such as 50 µM phenacetin (CYP1A2), 10 µM diclofenac […], 100 µM S-mephenytoin (CYP2C19) 5 µM dextromethorphan (CYP2D6), and 2.5 µM midazolam (CYP3A4), and compound 10 are pre-incubated at 37 °C for 5 min, then incubated with NADPH generation system solution for 15 min. To finish the enzymatic reaction, an acetonitrile solution (containing terfenadine) is added. The reaction tubes are centrifuged and the supernatant is withdrawn for analysis by LC–MS/MS.

Data set [12] can be described thus: in vitro. As to conditions: rat, microsomes, pH 7.4. It is filed as in vitro ADME. On the procedure:
as §4

Data set [13] has as its target T4, CYP2C19 (Homo sapiens, UniProt P33261).
T4 construct: Pooled Human liver microsomes (Sigma-Aldrich; 0.25 mg/mL); tissue Sigma-Aldrich; host or cells: pooled human liver microsomes
Nature of the data set: CYP isozymes activity assay, CYP2C19. It is filed as in vitro ADME. The note with it: microsomes, 0.1 µM. The procedure:
as §6

The nature of data set [14]: in vitro. It is filed as in vitro ADME, rat. On the procedure:
as §5

Data set [15] deals with T5, CYP3A4 (Homo sapiens, UniProt P08684).
T5 construct: Pooled Human liver microsomes (Sigma-Aldrich; 0.25 mg/mL); tissue Sigma-Aldrich; host or cells: pooled human liver microsomes
T5 sequence (P08684 whole entry): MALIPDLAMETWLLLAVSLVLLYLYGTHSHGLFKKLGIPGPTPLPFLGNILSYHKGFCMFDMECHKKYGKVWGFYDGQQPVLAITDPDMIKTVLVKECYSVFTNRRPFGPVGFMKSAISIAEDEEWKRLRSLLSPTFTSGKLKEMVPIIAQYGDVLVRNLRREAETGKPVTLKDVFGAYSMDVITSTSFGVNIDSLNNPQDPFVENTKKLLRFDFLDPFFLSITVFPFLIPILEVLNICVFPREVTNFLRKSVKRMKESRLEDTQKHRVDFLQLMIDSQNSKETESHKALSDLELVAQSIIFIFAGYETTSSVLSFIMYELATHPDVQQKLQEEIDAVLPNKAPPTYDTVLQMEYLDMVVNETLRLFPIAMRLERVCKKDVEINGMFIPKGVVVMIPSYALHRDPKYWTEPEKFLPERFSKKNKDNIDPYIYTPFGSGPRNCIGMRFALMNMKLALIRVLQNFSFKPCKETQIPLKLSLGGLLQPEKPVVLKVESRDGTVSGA
In words: CYP isozymes activity assay, CYP3A4. It is filed as in vitro ADME. The note with it: microsomes, 0.1 µM. On the procedure: as §6

The target of data set [16] is T6, CYP2C9 (Homo sapiens, UniProt P11712).
T6 construct: Pooled Human liver microsomes (Sigma-Aldrich; 0.25 mg/mL); tissue Sigma-Aldrich; host or cells: pooled human liver microsomes
T6 sequence (P11712 whole entry): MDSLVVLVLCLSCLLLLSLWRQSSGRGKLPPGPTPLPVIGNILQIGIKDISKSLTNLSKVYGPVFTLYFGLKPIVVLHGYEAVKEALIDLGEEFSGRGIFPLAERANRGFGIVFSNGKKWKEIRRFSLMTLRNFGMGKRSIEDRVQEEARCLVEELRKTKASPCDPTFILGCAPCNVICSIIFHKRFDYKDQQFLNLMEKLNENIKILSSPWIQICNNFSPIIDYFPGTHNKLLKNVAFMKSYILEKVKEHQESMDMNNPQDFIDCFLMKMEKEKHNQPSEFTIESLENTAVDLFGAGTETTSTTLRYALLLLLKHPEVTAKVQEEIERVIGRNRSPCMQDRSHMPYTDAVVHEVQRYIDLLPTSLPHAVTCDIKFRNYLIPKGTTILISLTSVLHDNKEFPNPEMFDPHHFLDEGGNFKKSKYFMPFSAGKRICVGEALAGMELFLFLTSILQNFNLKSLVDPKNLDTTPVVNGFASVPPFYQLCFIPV
Nature of the data set: CYP isozymes activity assay, CYP2C9. The format is in vitro ADME. As to conditions: microsomes, 0.1 µM. The procedure:
as §6

Data set [17] concerns the target T7, CYP1A2 (Homo sapiens, UniProt P05177).
T7 construct: Pooled Human liver microsomes (Sigma-Aldrich; 0.25 mg/mL); tissue Sigma-Aldrich; host or cells: pooled human liver microsomes
T7 sequence (P05177 1-516): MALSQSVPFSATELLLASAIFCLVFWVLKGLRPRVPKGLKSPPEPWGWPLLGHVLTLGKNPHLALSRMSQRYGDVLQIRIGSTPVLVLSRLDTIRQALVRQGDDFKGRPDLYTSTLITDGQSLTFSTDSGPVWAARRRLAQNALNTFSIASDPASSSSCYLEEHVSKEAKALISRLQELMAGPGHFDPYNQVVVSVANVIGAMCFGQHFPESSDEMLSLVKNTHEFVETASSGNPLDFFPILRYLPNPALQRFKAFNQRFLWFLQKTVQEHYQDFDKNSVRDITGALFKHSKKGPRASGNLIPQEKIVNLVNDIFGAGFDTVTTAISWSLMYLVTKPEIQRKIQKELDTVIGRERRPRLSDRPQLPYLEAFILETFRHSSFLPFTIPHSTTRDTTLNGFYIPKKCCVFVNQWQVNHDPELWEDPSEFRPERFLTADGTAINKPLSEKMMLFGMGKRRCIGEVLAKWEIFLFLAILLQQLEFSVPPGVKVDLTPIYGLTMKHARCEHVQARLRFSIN
In words: CYP isozymes activity assay, CYP1A2. It is filed as in vitro ADME. As to conditions: microsomes, 0.1 µM. The procedure:
as §6

T1 sequence (P07195 whole entry): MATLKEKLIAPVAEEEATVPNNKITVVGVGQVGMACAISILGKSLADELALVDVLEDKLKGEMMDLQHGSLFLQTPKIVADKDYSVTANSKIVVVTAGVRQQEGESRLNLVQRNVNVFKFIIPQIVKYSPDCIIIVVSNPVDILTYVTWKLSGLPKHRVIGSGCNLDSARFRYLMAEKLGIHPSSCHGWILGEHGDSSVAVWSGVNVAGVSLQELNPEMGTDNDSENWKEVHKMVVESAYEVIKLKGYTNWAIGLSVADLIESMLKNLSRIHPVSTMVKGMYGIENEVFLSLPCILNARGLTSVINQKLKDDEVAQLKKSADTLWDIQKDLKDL
T4 sequence (P33261 whole entry): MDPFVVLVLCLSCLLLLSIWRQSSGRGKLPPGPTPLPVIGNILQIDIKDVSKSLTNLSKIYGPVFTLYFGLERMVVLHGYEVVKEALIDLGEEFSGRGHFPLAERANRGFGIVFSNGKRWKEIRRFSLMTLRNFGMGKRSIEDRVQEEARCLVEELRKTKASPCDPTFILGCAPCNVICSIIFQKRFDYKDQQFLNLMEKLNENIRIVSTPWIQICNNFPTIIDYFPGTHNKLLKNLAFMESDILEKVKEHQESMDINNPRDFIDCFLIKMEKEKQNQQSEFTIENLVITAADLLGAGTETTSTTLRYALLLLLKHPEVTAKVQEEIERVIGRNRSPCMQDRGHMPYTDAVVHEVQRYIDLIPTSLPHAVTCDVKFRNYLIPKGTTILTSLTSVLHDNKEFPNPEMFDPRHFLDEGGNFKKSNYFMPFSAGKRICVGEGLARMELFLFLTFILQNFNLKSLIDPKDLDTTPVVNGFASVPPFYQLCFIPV

Regarding `O=C(OCc1ccc2c(c1)OCO2)c1ccc(C(F)(F)F)cc1` [Compound 2], the figures for the IC50 in [1] and in [8] were 395 µM and 13.6 µM, respectively. In addition, the GI50 in [2], in [3], in data set [4], in data set [5], in data set [6] and in [7] was more than 1000 µM each time. Also, the LDHB/LDHA in data set [8] turned out to be 29.00.

For the molecule `FC(F)(F)c1ccc(Sc2nc3ccccc3s2)cc1` [Compound 10], the amount remaining (as a rule, what is left of the initial amount, in per cent) at 0.5 h, 1 µM in [9] was found to be 9.5%; in data set [12], 5.2%. Moreover, the “plasma stability (in words)” value in [10] and in data set [14] was “stable” in each case. In addition, the share remaining at 0.5 h in data set [10] (human, plasma) is 98.1%; in data set [14] (rat, plasma), 93.8%. Also, the amount remaining at 2 h in data set [10] (human, plasma) came to 91.6%; in data set [14] (rat, plasma), 87.5%. Also, the “CYP2D6 isozyme activity (% of control activity)” value in data set [11] is 95.1 % of control activity. For the same molecule, the IC50 (in general, the concentration needed to halve the response being measured) was more than 1000 µM in [1] and 47.2 µM in [8]. Also, the GI50 in [2] amounted to 343 µM; in [3], 61.4 µM; in data set [5], 56.5 µM; in data set [6] it was 12.2 µM; in data set [7], 88.9 µM. The “CYP2C19 isozyme activity (% of control activity)” value in [13] is recorded as 12.1 % of control activity. The LDHB/LDHA in data set [8] is recorded as more than 21.18. Further, the “CYP3A4 isozyme activity (% of control activity)” value in [15] is reported as > 100 % of control activity. In data set [16], the “CYP2C9 isozyme activity (% of control activity)” value is 97.4 % of control activity. Further, the “CYP1A2 isozyme activity (% of control activity)” value in data set [17] was 36.7 % of control activity.
